Here are results for 20 compounds from patent publication US5610177A, “Acylated amino acids as endothelin antagonists” (Warner-Lambert Company, priority 1994, dated 1997).

One may read the IC50 as the midpoint of a concentration-inhibition curve.

Like-named read-outs stand apart in the source and are kept apart here. A value given as a limit tells only on which side of the number the result lay.

In series [1] the target is T1, ETB receptors (Homo sapiens, UniProt P24530).
T1 sequence (P24530 27-442): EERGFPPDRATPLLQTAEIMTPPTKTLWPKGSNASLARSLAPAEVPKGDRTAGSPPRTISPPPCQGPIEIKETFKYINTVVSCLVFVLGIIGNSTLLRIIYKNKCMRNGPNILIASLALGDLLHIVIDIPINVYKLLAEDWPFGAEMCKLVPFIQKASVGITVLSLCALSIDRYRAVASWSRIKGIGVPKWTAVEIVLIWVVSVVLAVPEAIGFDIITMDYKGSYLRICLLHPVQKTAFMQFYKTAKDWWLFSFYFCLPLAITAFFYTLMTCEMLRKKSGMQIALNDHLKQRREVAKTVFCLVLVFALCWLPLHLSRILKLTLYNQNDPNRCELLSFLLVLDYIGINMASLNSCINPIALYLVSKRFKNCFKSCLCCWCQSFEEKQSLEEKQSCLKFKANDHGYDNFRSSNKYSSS
Kind of series: HERBA-B, [125I]-ET-1 binding to recombinant human ETB receptor expressed in CHO-K1 cell membranes. Also on record: expressed in transfected cells; host or cells: CHO-K1 cells (membranes). The method, then: The compounds of Formula I are valuable antagonists of endothelin. […] The above process has also been modified by using human recombinant CHO-K1 cells. […] The gene for human ETB receptor was cloned and inserted into the pRc-CMW expression vector, then transfected into CHO-K1 cells by electroporation. For binding assays, membranes (0.7 mg protein) of CHO-K1 cells expressing recombinant human ETB receptor were used.

For series [2], the target named is T2, endothelin receptor of rabbit renal artery vascular smooth muscle cells (Oryctolagus cuniculus, UniProt A5A8K3).
T2 sequence (A5A8K3 21-427): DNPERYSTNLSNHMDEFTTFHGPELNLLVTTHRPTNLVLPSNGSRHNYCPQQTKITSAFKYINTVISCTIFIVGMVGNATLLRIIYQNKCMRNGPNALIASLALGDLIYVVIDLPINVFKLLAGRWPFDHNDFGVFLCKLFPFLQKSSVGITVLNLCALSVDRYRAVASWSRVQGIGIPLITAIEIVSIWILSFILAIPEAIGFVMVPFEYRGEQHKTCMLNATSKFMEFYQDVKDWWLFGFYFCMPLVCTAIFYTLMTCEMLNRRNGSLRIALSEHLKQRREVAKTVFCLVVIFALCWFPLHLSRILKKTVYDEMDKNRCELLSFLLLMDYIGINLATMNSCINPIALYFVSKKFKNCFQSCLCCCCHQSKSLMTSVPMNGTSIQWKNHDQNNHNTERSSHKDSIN
It is filed as binding. The conditions noted are these: [125I]-ET-1 25 pM, 37° C., 2 hours, read-out: IC50 ERBA-A. An excerpt:
The compounds of Formula I are valuable antagonists of endothelin.

The test system of series [3] is ETA and ETB receptors. The conditions noted are these: rats, cited from earlier work.
Series [4] has as its system ETA and ETB receptors. Conditions: cited from earlier work.
For series [5], the system named is ETA and ETB receptors. Conditions: orally administered; cited from earlier work.
Series [6] has as its system ETA and ETB receptors. Conditions: rats, cited from earlier work. This is another data set of the same source.
The subject of another series is endothelin receptor. The conditions noted are these: cited from earlier work.
The target of series [7] is T3, endothelin receptor of rat cerebellar membranes (Rattus norvegicus, UniProt P21451).
T3 sequence (P21451 27-442): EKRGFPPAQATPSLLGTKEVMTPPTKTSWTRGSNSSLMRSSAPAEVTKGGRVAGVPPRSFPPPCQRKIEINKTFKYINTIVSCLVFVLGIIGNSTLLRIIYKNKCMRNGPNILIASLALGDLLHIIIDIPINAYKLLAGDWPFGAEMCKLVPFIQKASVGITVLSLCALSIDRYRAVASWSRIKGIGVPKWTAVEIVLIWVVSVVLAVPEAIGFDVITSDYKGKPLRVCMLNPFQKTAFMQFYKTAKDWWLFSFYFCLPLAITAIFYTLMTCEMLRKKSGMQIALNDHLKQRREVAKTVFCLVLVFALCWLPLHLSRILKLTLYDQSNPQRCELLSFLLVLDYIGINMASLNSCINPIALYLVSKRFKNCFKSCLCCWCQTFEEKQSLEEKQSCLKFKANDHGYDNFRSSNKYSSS
Kind of series: Endothelin receptor binding assay-B (ERBA-B), [125I]-ET-1 binding in rat cerebellar membranes. Conditions: [125I]-ET-1 25 pM, 37° C., 2 hours. The text has this:
The compounds of Formula I are valuable antagonists of endothelin. […] ENDOTHELIN RECEPTOR BINDING […]-1 BINDING IN RAT CEREBELLAR MEMBRANES […] Count filters for radioactivity in gamma counter.

Series [8] deals with T1, ETB receptors. Kind of series: AAR-B, inhibition of ET-3 stimulated arachidonic acid release in CHO cells expressing recombinant ETB receptors. Also on record: expressed in transfected cells; host or cells: Chinese hamster ovary (CHO) cells. The conditions noted are these: ET-3 (1.0 nM) stimulated [3H]arachidonic acid release, read-out: IC50 AAR-B (Antagonist). Type of series: cell-based.

The test system of a further series is ETA receptor. The conditions noted are these: intraperitoneal, rats; cited from earlier work.
In series [9] the test system is endothelin ETA receptor. The conditions noted are these: intracisternal, canine subarachnoid hemorrhage model; cited from earlier work.
The test system of series [10] is endothelin ETA receptor. Conditions: rats; cited from earlier work.

As for `CC(Cc1ccccc1)(NC(=O)C(Cc1cccc2ccccc12)Cc1cccc2ccccc12)C(=O)O` (racemic) [Example 13, Bis-(1-naphthylmethyl)acetyl-(α-methyl-D, L-phenylalanine)], the IC50 on ETB receptors [1] came to 6.5 µM; in [2] it was 14 µM.

With `COc1cccc(Oc2c(NS(=O)(=O)c3ccc(C(C)(C)C)cc3)ncnc2OCCO)c1` [Ro 46-2005], the “effect in subarachnoid hemorrhage” value in the series on ETA and ETB receptors [3] was “dramatically reduced cerebral vasoconstriction after subarachnoid hemorrhage”; with ETA and ETB receptors [3] (listed as RO 46-2005) it was “effective in models of acute renal ischemia and subarachnoid hemorrhage in rats”. In addition, the “ETA/ETB receptor antagonism and selectivity” value with ETA and ETB receptors [4] is “non-selective ETA /ETB antagonists”. Moreover, in the series on ETA and ETB receptors [5], the antihypertensive effect result is “marked antihypertensive effect with a reasonably long duration”. Besides, the “effect in renal ischemia” value with ETA and ETB receptors [6] was “protective effect for renal vasoconstriction after renal ischemia”; with ETA and ETB receptors [6] (listed as RO 46-2005), “effective in models of acute renal ischemia”.

Turning to `Cc1noc(NS(=O)(=O)c2cccc3c(N(C)C)cccc23)c1C` [BMS182874], in the series with ETA and ETB receptors [4], the “ETA/ETB receptor antagonism and selectivity” value is on record as “ETA specific antagonists”.

In the case of `C[C@](Cc1c[nH]c2ccccc12)(NCC(Cc1cccc2ccccc12)Cc1cccc2ccccc12)C(=O)O` [Example 15, N-[2-bis-(1-naphthylmethyl)ethyl]-(α-methyl-D-tryptophan)], the IC50 on ETB receptors [1] was found to be 9.2 µM; in [2], 14 µM.

As to `COc1ccccc1Oc1c(NS(=O)(=O)c2ccc(C(C)(C)C)cc2)nc(-c2ncccn2)nc1OCCO` [Ro 47-0203], the “blood brain barrier crossing” value in the series on endothelin receptor (inferred from rabbit subarachnoid hemorrhage model) is on record as “crosses the blood brain barrier”. Besides, the reversal of vasoconstriction result with endothelin receptor (rabbit subarachnoid hemorrhage model) is “effective in a rabbit subarachnoid hemorrhage model in reversing vasoconstriction”. For the same compound, in the series with ETA and ETB receptors [4], the “ETA/ETB receptor antagonism and selectivity” value was “non-selective ETA /ETB antagonists”.

For the compound `C[C@](Cc1c[nH]c2ccccc12)(NC(=O)C(Cc1c(F)c(F)c(F)c(F)c1F)Cc1c(F)c(F)c(F)c(F)c1F)C(=O)O` [Example 7, Bis-(2,3,4,5,6-pentafluorophenylmethyl)acetyl-(α-methyl-D-tryptophan)], the IC50 on ETB receptors [1] was 27 µM; in series [2] it was more than 25 µM.

For the compound `Cc1cccc(CC(Cc2cccc(C)c2C)C(=O)N[C@](C)(Cc2c[nH]c3ccccc23)C(=O)O)c1C` [Example 4], the IC50 is 2.9 µM on ETB receptors [1] and more than 25 µM in [2].

Take `C[C@](Cc1c[nH]c2ccccc12)(NC(=O)C(Cc1ccc2c(c1)OCO2)Cc1ccc2c(c1)OCO2)C(=O)O` [Example 2, Bis-(3,4-methylenedioxyphenylmethyl)acetyl-(α-methyl-D-tryptophan)]: the IC50 at ETB receptors [1] is 1.6 µM; in series [2] it was more than 25 µM.

As to `CC(Cc1ccc(O)cc1)(NC(=O)C(Cc1cccc2ccccc12)Cc1cccc2ccccc12)C(=O)O` (racemic) [Example 14, Bis-(1-naphthylmethyl)acetyl-(α-methyl-D, L-tyrosine)], the IC50 was found to be 18 µM at ETB receptors [1] and 25 µM in series [2].

On to `C[C@@](Cc1c[nH]c2ccccc12)(NC(=O)C(Cc1cccc2ccccc12)Cc1cccc2ccccc12)C(=O)O` [Example 8, Bis-(1-naphthylmethyl)acetyl-(α-methyl-L-tryptophan)], for which the IC50 was 17 µM in [7] and more than 30 µM in series [2].

For the compound `C[C@](Cc1c[nH]c2ccccc12)(NC(=O)C(Cc1cccc2c1CCCC2)Cc1cccc2c1CCCC2)C(=O)O` [Example 6, Bis-(5,6,7,8-tetrahydro-1-naphthylmethyl)acetyl-(α-methyl-D-tryptophan)], the IC50 at ETB receptors [1] was found to be 1.4 µM; in series [2], 14 µM.

As to `C[C@](Cc1c[nH]c2ccccc12)(NC(=O)C(Cc1ccccc1)Cc1cccc2ccccc12)C(=O)O` (stereo partly drawn) [Example 9, 2-(1-Naphthylmethyl)-2-benzylacetyl-(α-methyl-D-tryptophan)], the IC50 was determined as 2.2 µM on ETB receptors [1], 6.6 µM on ETB receptors [8] and 26 µM in series [2].

Regarding `Cc1ccccc1CC(Cc1ccccc1C)C(=O)N[C@](C)(Cc1c[nH]c2ccccc12)C(=O)O` [Example 10, Bis-(2-methylphenylmethyl)acetyl-(α-methyl-D-tryptophan)], the IC50 at ETB receptors [1] is 1.5 µM; at ETB receptors [8], 9.5 µM; in series [2], more than 25 µM.

Consider `C[C@](Cc1c[nH]c2ccccc12)(NC(=O)C(Cc1ccccc1)Cc1ccccc1)C(=O)O` [Example 5, Di-benzylacetyl-(α-methyl-D-tryptophan)], for which the IC50 is 19 µM on ETB receptors [1] and more than 25 µM in series [2].

In the case of `C[C@](Cc1c[nH]c2ccccc12)(NC(=O)C(Cc1cccc2ccccc12)Cc1cccc2ccccc12)C(=O)O` [Example 1, Bis-(1-naphthylmethyl)acetyl-(α-methyl-D-tryptophan)], the IC50 is 0.57 µM on ETB receptors [1], 2.5 µM on ETB receptors [8], 0.6 µM in series [7] and 10 µM in [2].

Regarding `C[C@](Cc1c[nH]c2ccccc12)(NC(=O)C(CC1CCCCC1)CC1CCCCC1)C(=O)O` [Example 16, Bis-(cyclohexylmethyl)acetyl-(α-methyl-D-tryptophan)], the results for the IC50 (on ETB receptors [1]; in series [2]) were 7.4 µM and more than 25 µM, respectively.

Turning to `C[C@](Cc1c[nH]c2ccccc12)(NC(=O)C(Cc1ccc2ccccc2c1)Cc1ccc2ccccc2c1)C(=O)O` [Example 3, Bis-(2-naphthylmethyl)acetyl-(α-methyl-D-tryptophan)], the values for the IC50 (at ETB receptors [1]; in series [2]) were 16 µM and more than 25 µM, respectively.

For the compound `CC(Cc1cccc2ccccc12)(Cc1cccc2ccccc12)C(=O)N[C@](C)(Cc1c[nH]c2ccccc12)C(=O)O` [Example 12, Bis-2-(1-naphthylmethyl)-2-methylacetyl-(α-methyl-D-tryptophan)], the values for the IC50 (at ETB receptors [1]; in series [2]) were 10 µM and more than 25 µM, respectively.

For the compound `Cc1cccc(CC(Cc2cccc(C)c2)C(=O)N[C@](C)(Cc2c[nH]c3ccccc23)C(=O)O)c1` [Example 11, Bis-(3-methylphenylmethyl)acetyl-(α-methyl-D-tryptophan)], the IC50 on ETB receptors [1] was 4.7 µM; at ETB receptors [8], 9.9 µM; in [2] it was more than 25 µM.

With FR 139317, the “ETA/ETB receptor antagonism and selectivity” value in the series on ETA and ETB receptors [4] is given as “potent endothelin ETA receptor antagonist”. For the same compound, in the series on ETA receptor, the “permeability to proteins, glomerular injury and renal function” value was “reduced abnormal permeability to proteins and limited glomerular injury and prevented renal function deterioration”. For the same compound, in the series with endothelin ETA receptor [9], the “vasoconstriction of the basilar artery” value is on record as “significantly reduced the vasoconstriction of the basilar artery”. Moreover, in the series on endothelin ETA receptor [10], the ET-1 induced arrhythmia entry is reported as “suppressed”.
